Reference: US20260258009A1, “3-[(BENZO[D][1,3]DIOXOLANE-4-YL)OXY]PROPYLAMINE HYDROCHLORIDE, OPTICAL ISOMER AND CRYSTAL THEREOF, AND PREPARATION METHOD THEREFOR” (priority 2022, published 2026)
Read-outs that look alike come from different tables or passages of the source.

Columns and labels:
in vivo [1] = conditions: both sexes, ICR, mouse, in vivo, po
Experimental: (§1) The dose administered at the time of the formal test was determined based on the dose of the compound in the preliminary experiment that caused 100% and 0% death in mice. In the formal test, ICR mice were taken and randomly grouped, with 10 mice in each group, half male and half female, which were subjected to intragastric administration at 10 mL/kg.
(§2) From the results of the mouse acute toxicity test, the compound of formula (I) is least toxic. The therapeutic index (TI=LD50/ED50) was calculated based on the results of the mouse acute toxicity and efficacy test.

ICR mice [2] = test: in vivo; conditions: mouse acute toxicity LD50 / forced swimming ED50
Experimental: as §1, §2

ICR mice [3] = test: Mouse forced swimming test; format: in vivo; conditions: intragastric; for Immobility time: mice, 1 h after administration, mean±SD, n=12; for minimum effective dose (MED) / ED50: mouse forced swimming; for ED50: po, read-out: ED50 (median effective dose, FST-ED50)
Experimental: SPF grade ICR mice were taken. The animals were grouped by weight, 12 animals per group, and the animals were allowed to acclimate for at least 3 days before behavioural test.
The behavioural test was started 1 h after intragastric administration. The mice were placed in a transparent glass cylinder with water (water depth: 15 cm, water temperature: 23-25° C.) and video recorded for 6 min (the background was an LED light panel). At the end of the time, the mice were removed from the water and the next batch of mice was subjected to the behavioural test. Water was changed after every 3 batches of tests. After the test, the video of the behavioural test was derived and the cumulative immobility time of the mice 4 min after the 6 min forced swimming period was analyzed using the Forced Swim Scant 2.0 software.
The test results are expressed as mean±SD. Comparisons between each group and the vehicle group were conducted using the t-test. The differences were considered statistically significant when. P<0.05.

in vivo [4] = conditions: both, beagle, dog; for half-life: t1/2
Experimental: Each group had six beagle dogs, half male and half female.
Preparation of solutions: • 1) Intravenous injection administration: 0.9% Normal saline was used as a vehicle. • 2) Oral administration: According to the dose of 10 mg/kg (based on base), a corresponding mass of the drug was weighed according to the actual weight of the animal, and then filled into a capsule to be administered to the animal.

[5] = Solubility experiment (HPLC, external standard method); format: physicochemical; conditions: 20 °C, water, thermodynamic from solid
Experimental: The concentrated solution was placed in a 20° C. water bath thermostatic oscillator for overnight oscillation (supersaturation) and filtered. The filtrate was taken, 1 mL of which was precisely measured and placed in a 100 mL volumetric flask. A diluent (water) was added, the mixture was diluted to volume and mixed well, 1 mL of which was precisely measured and placed in a 10 mL volumetric flask. A diluent was added, the mixture was diluted to volume and mixed well as a test sample solution.
Control substance solution: A proper amount of 5 samples were respectively taken, precisely measured, dissolved in a proper amount of a diluent by ultrasonication, and diluted to give a solution containing about 0.1 mg of the sample per 1 mL. Two duplicate samples were prepared for each batch.
• (1) Preparation of buffer: About 2.6428 g ammonium sulfate was weighed and dissolved in 1000 mL of water. 2 mL of triethylamine was added, and the pH value was adjusted to 4.0 with dilute sulfuric acid. • (2) Preparation of mobile phase: Methanol-0.02 mol/L ammonium sulfate solution (2 mL triethylamine was added per 1000 mL, and the pH value was adjusted to 4.0 with dilute sulfuric acid) (45:55). 1000 mL was prepared, mixed well, filtered, and used after ultrasonic treatment.
Detection wavelength: 230 nm; flow rate: 1.0 mL/min; column temperature: 35° C.; sample injection volume: 20 μL; chromatographic column: Agilent Eclipse XDB-C18 chromatographic column (4.6×150 mm, 5 μm); mobile phase: methanol-0.02 mol/L ammonium sulfate solution (2 mL triethylamine was added per 1000 mL, and the pH value was adjusted to 4.0 with dilute sulfuric acid) (45:55).
20 μL of each solution was precisely measured, and injected separately into a liquid chromatograph. The chromatograms were recorded, and the solubility of the compounds was determined according to an external standard method.

[6] = 95% confidence interval of LD50
[7] = Mouse acute toxicity LD50 (median lethal dose)

| Compound | LD50 at 7 days (in vivo [1]; [6]) | LD50 at 7 days (in vivo [1]; [7]) | TI = LD50/ED50 (therapeutic index) (ICR mice [2]) | Immobility time (ICR mice [3]; 0.2 mg/kg) | Immobility time (ICR mice [3]; 0.4 mg/kg) | Immobility time (ICR mice [3]; 0.8 mg/kg) | Immobility time (ICR mice [3]; 1.6 mg/kg) | Immobility time (ICR mice [3]; 15 mg/kg) | Immobility time (ICR mice [3]; 30 mg/kg) | minimum effective dose (MED) (ICR mice [3]) | ED50 (ICR mice [3]) | other results |
| --- | --- | --- | --- | --- | --- | --- | --- | --- | --- | --- | --- | --- |
| CNCC[C@H](Oc1cccc2c1OCO2)c1ccccc1.Cl [(S)—N-methyl-3-phenyl-3-[(benzo[d][1,3]dioxolan-4-yl)oxy]propylamine hydrochloride] | 13.1 to 91.3 mg/kg | 66.8 mg/kg | 38.4 | 180.4 ± 29.4 s | 167.5 ± 45.7 s | 147.0 ± 65.4 s | 94.1 ± 35.4 s | 8.9 ± 8.7 s | 6.2 ± 9.7 s | 1.6 mg/kg | 1.74 mg/kg | – |
| CNCC[C@@H](Oc1cccc2c1OCO2)c1ccccc1.Cl [Compound of formula I, (R)—N-methyl-3-phenyl-3-[(benzo[d][1,3]dioxolan-4-yl)oxy]propylamine hydrochloride] | 106 to 125 mg/kg | 116 mg/kg | 120.4 | 178.6 ± 17.0 s | 105.0 ± 72.1 s | 106.0 ± 59.7 s | 55.4 ± 41.1 s | 13.0 ± 23.3 s | 7.6 ± 4.4 s | 0.4 mg/kg | 0.96 mg/kg | AUC(0-t) (in vivo [4]; iv, 0.3 mg/kg): 117 ng·h/mL; AUC(0-inf) (in vivo [4]; iv, 0.3 mg/kg): 119 ng·h/mL; Cmax (in vivo [4]; iv, 0.3 mg/kg): 80.4 ng/mL; Tmax (in vivo [4]; iv, 0.3 mg/kg): 0.08 h; half-life (in vivo [4]; iv, 0.3 mg/kg): 2.15 h; AUC(0-t) (in vivo [4]; po, 1 mg/kg): 100 ng·h/mL; AUC(0-inf) (in vivo [4]; po, 1 mg/kg): 102 ng·h/mL; Cmax (in vivo [4]; po, 1 mg/kg): 28.9 ng/mL; Tmax (in vivo [4]; po, 1 mg/kg): 1.23 h; half-life (in vivo [4]; po, 1 mg/kg): 2.36 h; bioavailability (in vivo [4]; po, Bioavailability): 25.7%; solubility ([5]; Solubility): 33.2 mg/mL |
| CNCCC(Oc1cccc2c1OCO2)c1ccccc1.Cl (stereo not shown) [N-methyl-3-phenyl-3-[(benzo[d][1,3]dioxolan-4-yl)oxy]propylamine hydrochloride] | – | – | 62.0 | 165.3 ± 37.2 s | 125.6 ± 53.6 s | 86.9 ± 53.4 s | 83.2 ± 52.9 s | 64.3 ± 73.7 s | 3.7 ± 5.9 s | 0.4 mg/kg | 1.81 mg/kg | LD50 at 7 days (in vivo [1]; mice, single intragastric administration, observed within 7 days, read-out: Mouse acute toxicity LD50 (median lethal dose)): 112 mg/kg; LD50 at 7 days (in vivo [1]; mice, single intragastric administration, read-out: 95% confidence interval of LD50): 102 to 122 mg/kg; solubility ([5]; Water, 20° C., overnight oscillation, read-out: Solubility): 1500 mg/mL |
